According to ChEMBL document CHEMBL1201862, “PubChem BioAssay data set” (2004):
Active and inactive are the calls of the source.

Legend:
[1] = target: T1, Sentrin-specific protease 8 (Homo sapiens, UniProt Q96LD8); assay: SENP8 protease inhibitors, SAR follow-up, biochemical, luminescence (AID 504501); type: functional
T1 sequence (Q96LD8 whole entry): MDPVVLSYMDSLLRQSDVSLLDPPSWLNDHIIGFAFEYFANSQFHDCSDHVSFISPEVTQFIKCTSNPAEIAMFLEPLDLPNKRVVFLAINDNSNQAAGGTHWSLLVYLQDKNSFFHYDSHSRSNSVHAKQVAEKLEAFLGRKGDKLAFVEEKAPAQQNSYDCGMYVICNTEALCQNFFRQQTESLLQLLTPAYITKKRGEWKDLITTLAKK

Caspase-3 = target: T2, Caspase-3 (Homo sapiens, UniProt P42574); assay: SAR Analysis of small molecule inhibitors of Sentrin-specific proteases (SENPs) using a Caspase-3 Selectivity assay. [Related pubchem assays (depositor defined):AID2540, AID2599, AID434973, AID489001]; type: functional
T2 sequence (P42574 whole entry): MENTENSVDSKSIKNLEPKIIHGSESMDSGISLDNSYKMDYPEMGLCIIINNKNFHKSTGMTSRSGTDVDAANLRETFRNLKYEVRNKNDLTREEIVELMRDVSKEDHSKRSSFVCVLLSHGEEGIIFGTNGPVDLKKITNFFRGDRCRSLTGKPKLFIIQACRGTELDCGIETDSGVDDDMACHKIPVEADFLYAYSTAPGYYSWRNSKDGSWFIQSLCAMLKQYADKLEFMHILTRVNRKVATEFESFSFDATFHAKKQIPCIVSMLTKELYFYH

[2] = target: T3, Sentrin-specific protease 6 (Homo sapiens, UniProt Q9GZR1); assay: SAR Analysis of small molecule inhibitors of Sentrin-specific protease 6 (SENP6) using a Luminescent assay. [Related pubchem assays (depositor defined):AID2582, AID2599]; type: functional
T3 sequence (Q9GZR1 whole entry): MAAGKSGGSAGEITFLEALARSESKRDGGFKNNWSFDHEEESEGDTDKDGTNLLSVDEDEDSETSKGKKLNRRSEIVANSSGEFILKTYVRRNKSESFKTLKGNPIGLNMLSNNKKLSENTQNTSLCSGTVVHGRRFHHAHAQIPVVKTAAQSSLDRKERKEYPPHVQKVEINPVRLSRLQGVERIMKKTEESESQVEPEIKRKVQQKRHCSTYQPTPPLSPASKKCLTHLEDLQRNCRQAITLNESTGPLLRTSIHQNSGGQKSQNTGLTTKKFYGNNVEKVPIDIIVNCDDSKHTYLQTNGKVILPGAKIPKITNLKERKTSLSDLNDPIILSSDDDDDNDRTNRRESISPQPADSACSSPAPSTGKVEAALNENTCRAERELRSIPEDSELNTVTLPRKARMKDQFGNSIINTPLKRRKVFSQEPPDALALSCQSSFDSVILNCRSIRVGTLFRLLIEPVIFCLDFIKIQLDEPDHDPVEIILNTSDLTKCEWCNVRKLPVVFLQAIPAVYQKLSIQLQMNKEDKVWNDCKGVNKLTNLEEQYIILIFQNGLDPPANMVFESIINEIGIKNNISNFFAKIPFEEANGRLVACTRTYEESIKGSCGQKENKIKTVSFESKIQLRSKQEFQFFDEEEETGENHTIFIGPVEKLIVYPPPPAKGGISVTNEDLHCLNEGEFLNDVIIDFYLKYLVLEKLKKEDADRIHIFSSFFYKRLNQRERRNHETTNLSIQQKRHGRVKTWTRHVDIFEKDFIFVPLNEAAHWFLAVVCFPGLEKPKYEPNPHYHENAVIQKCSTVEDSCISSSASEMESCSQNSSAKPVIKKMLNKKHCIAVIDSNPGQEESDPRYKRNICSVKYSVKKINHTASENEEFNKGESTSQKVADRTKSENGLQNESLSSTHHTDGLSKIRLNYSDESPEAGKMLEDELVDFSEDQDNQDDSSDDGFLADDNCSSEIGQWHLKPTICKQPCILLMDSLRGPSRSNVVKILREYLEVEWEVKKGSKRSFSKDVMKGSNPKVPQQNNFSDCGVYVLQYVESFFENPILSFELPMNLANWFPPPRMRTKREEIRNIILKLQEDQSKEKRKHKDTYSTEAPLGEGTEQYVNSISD

[3] = target: T4, Sentrin-specific protease 7 (Homo sapiens, UniProt Q9BQF6); assay: SENP7 protease inhibitors, SAR follow-up, biochemical, luminescence (AID 504497); type: functional
T4 sequence (Q9BQF6 whole entry): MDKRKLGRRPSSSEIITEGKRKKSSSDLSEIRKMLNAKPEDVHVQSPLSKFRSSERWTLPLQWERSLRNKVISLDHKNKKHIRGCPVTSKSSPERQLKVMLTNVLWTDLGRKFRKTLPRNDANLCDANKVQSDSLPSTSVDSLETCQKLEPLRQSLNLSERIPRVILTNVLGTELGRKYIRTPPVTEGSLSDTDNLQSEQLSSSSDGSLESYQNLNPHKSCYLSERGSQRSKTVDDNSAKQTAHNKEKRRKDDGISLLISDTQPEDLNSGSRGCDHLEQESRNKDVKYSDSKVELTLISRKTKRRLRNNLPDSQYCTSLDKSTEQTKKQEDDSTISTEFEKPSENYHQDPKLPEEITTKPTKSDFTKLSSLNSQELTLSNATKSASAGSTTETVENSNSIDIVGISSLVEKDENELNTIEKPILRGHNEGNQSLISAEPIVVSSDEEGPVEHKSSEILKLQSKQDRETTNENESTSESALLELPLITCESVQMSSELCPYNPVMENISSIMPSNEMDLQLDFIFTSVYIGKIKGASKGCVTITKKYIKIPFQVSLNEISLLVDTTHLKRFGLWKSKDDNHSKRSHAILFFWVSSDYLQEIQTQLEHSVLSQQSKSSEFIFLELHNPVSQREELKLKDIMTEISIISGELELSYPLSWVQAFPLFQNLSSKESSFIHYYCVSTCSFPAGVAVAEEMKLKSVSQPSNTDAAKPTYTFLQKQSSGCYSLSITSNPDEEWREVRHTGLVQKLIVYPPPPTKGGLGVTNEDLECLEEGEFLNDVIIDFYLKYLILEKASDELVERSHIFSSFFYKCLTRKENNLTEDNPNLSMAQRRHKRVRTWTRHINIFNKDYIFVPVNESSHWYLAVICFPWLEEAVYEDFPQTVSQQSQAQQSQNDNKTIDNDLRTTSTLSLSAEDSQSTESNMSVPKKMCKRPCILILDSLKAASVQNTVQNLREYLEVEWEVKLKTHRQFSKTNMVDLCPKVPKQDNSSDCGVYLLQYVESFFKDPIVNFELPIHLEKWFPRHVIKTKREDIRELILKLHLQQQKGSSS

Insulin-degrading enzyme [4] = target: T5, Insulin-degrading enzyme (Homo sapiens, UniProt P14735); assay: activators of recombinant IDE enzyme, dose response, counter-screen for IDE activator project, biochemical, fluorescence polarization (AID 588681)
T5 sequence (P14735 whole entry): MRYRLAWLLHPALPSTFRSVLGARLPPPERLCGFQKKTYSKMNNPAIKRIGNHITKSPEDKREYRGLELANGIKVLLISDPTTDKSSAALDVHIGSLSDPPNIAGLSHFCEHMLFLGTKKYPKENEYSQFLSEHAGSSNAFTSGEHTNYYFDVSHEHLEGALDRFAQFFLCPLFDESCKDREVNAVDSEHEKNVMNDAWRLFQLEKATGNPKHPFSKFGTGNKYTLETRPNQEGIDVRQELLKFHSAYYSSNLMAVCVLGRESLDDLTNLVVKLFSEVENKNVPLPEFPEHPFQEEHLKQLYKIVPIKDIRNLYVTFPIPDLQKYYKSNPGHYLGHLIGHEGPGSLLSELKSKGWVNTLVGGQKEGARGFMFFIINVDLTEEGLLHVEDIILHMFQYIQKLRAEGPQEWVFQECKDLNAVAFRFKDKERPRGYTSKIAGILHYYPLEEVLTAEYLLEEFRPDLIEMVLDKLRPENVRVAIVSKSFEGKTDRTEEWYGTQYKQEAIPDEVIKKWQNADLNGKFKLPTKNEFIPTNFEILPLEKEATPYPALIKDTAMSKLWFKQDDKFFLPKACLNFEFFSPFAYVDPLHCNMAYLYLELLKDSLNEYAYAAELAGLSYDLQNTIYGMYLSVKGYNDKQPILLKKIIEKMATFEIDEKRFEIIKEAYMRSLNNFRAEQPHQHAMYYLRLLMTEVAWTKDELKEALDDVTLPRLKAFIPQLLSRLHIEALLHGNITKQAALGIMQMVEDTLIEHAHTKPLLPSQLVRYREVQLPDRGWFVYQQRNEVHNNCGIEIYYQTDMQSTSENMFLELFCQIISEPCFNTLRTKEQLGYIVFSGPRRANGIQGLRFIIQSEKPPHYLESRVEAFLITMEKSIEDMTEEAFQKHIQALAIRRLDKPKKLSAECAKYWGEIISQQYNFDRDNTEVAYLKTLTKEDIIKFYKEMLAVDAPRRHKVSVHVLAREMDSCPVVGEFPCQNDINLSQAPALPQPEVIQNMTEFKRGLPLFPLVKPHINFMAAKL

Insulin-degrading enzyme [5] = target: T5, Insulin-degrading enzyme; assay: activators of endogenous IDE in HEK cells, dose response, cell-based, fluorescence polarization (AID 588439); type: functional
HEK293 [6] = assay: HEK cell cytotoxicity by LDH release, dose response, cytotoxicity control for IDE activator project, fluorescence, HEK cells (AID 588440); type: functional, cell-based; settings: Homo sapiens;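 further: cytotoxicity by LDH release measuring loss of membrane integrity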
HEK293 [7] = assay: optical interference in Abeta FP readout, dose response, artefact control for IDE activator project, biochemical, fluorescence polarization (AID 588442); type: functional, cell-based; settings: Homo sapiens

NS(=O)(=O)c1ccc(CCNC(=O)c2sc3cc(Cl)ccc3c2Cl)cc1
inactive: IC50 [1] > 99 µM | IC50 (Caspase-3) > 99 µM | IC50 [2] > 99 µM | IC50 [3] > 99 µM

CCOC(=O)c1cccc(P(C)(C)=O)c1
inactive: EC50 (Insulin-degrading enzyme [4]) > 54.7 µM | EC50 (Insulin-degrading enzyme [5]) > 54.7 µM | IC50 (HEK293 [6]) > 89.1 µM | EC50 (HEK293 [7]) > 54.7 µM
